Nine compounds from patent US20160159774A1 (Celgene Avilomics Research, Inc., priority 2014, published 2016) can be followed below.

Bounds are passed on as bounds.

One data set concerns the target T1, activated BTK enzyme (Homo sapiens, UniProt Q06187).
T1 construct: purchased Life Technologies PV3363
Briefly: Omnia assay for potency assessment against BTK. It is filed as biochemical. The following applies: BTK inhibition assay; [BTK]=5 nM, [ATP]=40 μM, [Y5-Sox]=10 μM. In outline:
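Activated BTK (5 nM) was pre-incubated 30 min at room temperature with compound, then reacted with 40 μM ATP (KMapp ~36 μM) and 10 μM Y5-Sox peptide in Tris pH 7.5/MgCl2/EGTA/DTT buffer. Sox fluorescence (ex360/em485) followed for 60 min; IC50 from initial velocities (~0–30 min) by variable-slope fit.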

Data set [1] deals with T2, BTK in Ramos human Burkitt lymphoma cells (Homo sapiens, UniProt Q06187).
T2 construct: Compounds of this invention were assayed in Ramos human Burkitt lymphoma cells; endogenous in cells; host or cells: Ramos human Burkitt lymphoma cells
T2 sequence (Q06187 whole entry): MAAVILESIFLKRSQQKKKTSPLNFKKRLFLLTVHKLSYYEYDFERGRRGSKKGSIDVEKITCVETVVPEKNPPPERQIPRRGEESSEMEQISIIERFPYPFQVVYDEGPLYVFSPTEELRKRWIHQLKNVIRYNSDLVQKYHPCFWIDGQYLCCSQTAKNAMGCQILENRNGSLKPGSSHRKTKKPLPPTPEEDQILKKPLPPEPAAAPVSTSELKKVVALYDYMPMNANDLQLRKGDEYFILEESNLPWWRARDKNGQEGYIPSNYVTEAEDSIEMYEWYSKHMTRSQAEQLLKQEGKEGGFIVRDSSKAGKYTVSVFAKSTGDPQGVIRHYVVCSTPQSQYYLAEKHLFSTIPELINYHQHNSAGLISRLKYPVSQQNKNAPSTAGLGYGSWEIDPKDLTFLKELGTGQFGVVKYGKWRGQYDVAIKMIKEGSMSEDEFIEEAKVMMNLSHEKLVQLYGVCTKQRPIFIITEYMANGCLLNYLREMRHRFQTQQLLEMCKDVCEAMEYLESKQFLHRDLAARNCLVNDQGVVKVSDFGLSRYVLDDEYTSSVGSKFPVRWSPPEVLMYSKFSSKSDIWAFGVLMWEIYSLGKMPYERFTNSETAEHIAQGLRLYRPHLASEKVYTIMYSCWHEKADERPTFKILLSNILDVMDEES
Briefly: BTK Ramos cellular assay (BTK occupancy). It is filed as cell-based. The following applies: concentration producing 50% occupancy of BTK, 1 hour incubation with compound. In outline:
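Ramos cells at 2×10^6 cells/mL in serum-free medium treated 1 hour with compound (500 to 0.7 nM final), then lysed. Free BTK captured by biotinylated covalent probe (1 μM final, 1 h) on streptavidin plate, detected by anti-Btk ELISA at OD 450 nm against recombinant Btk standard, normalized to total protein; value is concentration giving 50% occupancy.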

T1 sequence (Q06187 whole entry): as above

For `C=CC(=O)N1CCC[C@@H](Nc2nc(Nc3ccc4c(c3)CN(CC3CC3)CC4)ncc2F)C1` [Compound I-47, (R)-1-(3-(2-(2-(Cyclopropylmethyl)-1,2,3,4-tetrahydroisoquinolin-7-ylamino)-5-fluoropyrimidin-4-ylamino)piperidin-1-yl)prop-2-en-1-one], the melting point (usually the temperature of the solid-liquid transition) was in the range of 80 to 82 °C. The half-maximal inhibitory concentration (IC50) – broadly, the point on the concentration scale where inhibition reaches its midpoint – at activated BTK enzyme is less than 0.01 µM. Besides, in data set [1], the EC50 (in general, the midpoint of the concentration-response curve) was less than 0.01 µM.
Regarding `C=CC(=O)N1CCC[C@@H](Nc2nc(Nc3ccc4c(c3)CCN(CC3COC3)CC4)ncc2F)C1` [Compound I-59, (R)-1-(3-(5-Fluoro-2-(3-(oxetan-3-ylmethyl)-2,3,4,5-tetrahydro-1H-benzo[d]azepin-7-ylamino)pyrimidin-4-ylamino)piperidin-1-yl)prop-2-en-1-one], the melting point was 104 to 106 °C. Moreover, the IC50 at activated BTK enzyme is less than 0.01 µM. Also, the EC50 in data set [1] was less than 0.01 µM.
As for `C=CC(=O)N1CCC[C@@H](Nc2nc(Nc3ccc4c(c3)CCN(C)CC4)ncc2F)C1` [Compound I-58, (R)-1-(3-(5-Fluoro-2-(3-methyl-2,3,4,5-tetrahydro-1H-benzo[d]azepin-7-ylamino)pyrimidin-4-ylamino)piperidin-1-yl)prop-2-en-1-one], the melting point lay in the range of 102 to 104 °C. Also, the 50% inhibitory concentration (IC50) at activated BTK enzyme is less than 0.01 µM. Also, in data set [1], the EC50 is less than 0.01 µM.
In turn, `C=CC(=O)N1CCC[C@@H](Nc2nc(Nc3ccc4c(c3)CN(CC3COC3)CCC4)ncc2F)C1` [Compound I-56, (R)-1-(3-(5-Fluoro-2-(2-(oxetan-3-ylmethyl)-2,3,4,5-tetrahydro-1H-benzo[c]azepin-8-ylamino)pyrimidin-4-ylamino)piperidin-1-yl)prop-2-en-1-one] gave a melting point of 103 to 105 °C. Also, at activated BTK enzyme, the IC50 was less than 0.01 µM. Besides, the 50% effective concentration (EC50) in data set [1] fell in the range of 0.01 to 0.1 µM.
In turn, `C=CC(=O)N1CCC[C@@H](Nc2nc(Nc3ccc4c(c3)CN(C(C)(C)C)CC4)ncc2F)C1` [Compound I-49, (R)-1-(3-(2-(2-tert-Butyl-1,2,3,4-tetrahydroisoquinolin-7-ylamino)-5-fluoropyrimidin-4-ylamino)piperidin-1-yl)prop-2-en-1-one] yielded a melting point of 118 to 121 °C. Also, on activated BTK enzyme, the IC50 was less than 0.01 µM. The concentration giving a half-maximal response (EC50) in data set [1] was 0.01 to 0.1 µM.
`C=CC(=O)N1CCC[C@@H](Nc2nc(Nc3ccc4c(c3)CN(C)C4=O)ncc2F)C1` [Compound I-61, (R)-5-(4-(1-Acryloylpiperidin-3-ylamino)-5-fluoropyrimidin-2-ylamino)-2-methylisoindolin-1-one] had a melting point of 120 to 122 °C. On activated BTK enzyme, the concentration for half-maximal inhibition (IC50) is less than 0.01 µM. Besides, in data set [1], the EC50 fell in the range of 0.01 to 0.1 µM.
`C=CC(=O)N1CCC[C@@H](Nc2nc(Nc3ccc4c(c3)CN(C3CC3)CC4)ncc2F)C1` [Compound I-48, (R)-1-(3-(2-(2-Cyclopropyl-1,2,3,4-tetrahydroisoquinolin-7-ylamino)-5-fluoropyrimidin-4-ylamino)piperidin-1-yl)prop-2-en-1-one] had a melting point of 105 to 107 °C. For the same compound, the IC50 on activated BTK enzyme is less than 0.01 µM. Besides, the concentration giving a half-maximal response (EC50) in data set [1] is less than 0.01 µM.
Take `C=CC(=O)N1CCC[C@@H](Nc2nc(Nc3ccc4c(c3)CCN(CC3COC3)C4)ncc2F)C1` [Compound I-32, (R)-1-(3-(5-Fluoro-2-(2-(oxetan-3-ylmethyl)-1,2,3,4-tetrahydroisoquinolin-6-ylamino)pyrimidin-4-ylamino)piperidin-1-yl)prop-2-en-1-one]: on activated BTK enzyme, the half-maximal inhibitory concentration (IC50) is less than 0.01 µM. For the same compound, the EC50 in data set [1] was less than 0.01 µM.
With `C=CC(=O)N1CCC[C@@H](Nc2nc(Nc3ccc4c(c3)CN(C3CCC3)CC4)ncc2F)C1` [Compound I-46, (R)-1-(3-(2-(2-Cyclobutyl-1,2,3,4-tetrahydroisoquinolin-7-ylamino)-5-fluoropyrimidin-4-ylamino)piperidin-1-yl)prop-2-en-1-one], at activated BTK enzyme, the half-inhibitory concentration (IC50) was less than 0.01 µM. Further, in data set [1], the half-maximal effective concentration (EC50) is less than 0.01 µM.
